Measured values published in patent US9511073B2, “Aromatic amides and uses thereof” (TAXIS Pharmaceuticals, Inc., priority 2011, dated 2016).
≈ marks a conversion by molar mass, not a printed value. Like-named read-outs stand apart in the source and are kept apart here.

Legend:
[1] = system: Staphylococcus aureus (Isolate ID ATCC 29213); assay: Bacterial assay: MIC by broth microdilution or agar dilution (CLSI), S. aureus ATCC 29213; format: cell-based; settings: Staphylococcus aureus
How it was run: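 MICs by CLSI broth microdilution or agar dilution against S. aureus ATCC 29213 and its FtsZ-G196A mutant. Values reported as ranges: A ≤0.25 μg/mL, B >0.25–1.0, C >1.0–16, D >16 μg/mL.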

[2] = system: FtsZ-G196A Staphylococcus aureus (Isolate ID GG/190723/sa/1.2); assay: Bacterial assay: MIC, FtsZ G196A mutant strain; format: cell-based
Description: (§1) Compounds are tested for antimicrobial activity by susceptibility testing in liquid or on solid media. Minimum inhibitory concentrations (MICs) for compounds against each strain are determined by the broth microdilution or agar dilution method according to the guidelines of the Clinical Laboratories and Standards Institute, formerly the National Committee for Clinical Laboratory Standards (Clinical Laboratories and Standards Institute. Methods for Dilution Antimicrobial Susceptibility Tests for Bacteria That Grow Aerobically; Approved Standard—Seventh Edition. Document M7-A7. CLSI, Wayne, Pa., 2006; Clinical Laboratories and Standards Institute). The bacterial strains tested include S. aureus (Staphylococcus aureus (Isolate ID ATCC 29213)) and an FtsZ mutant of this isolate (FtsZ-G196A Staphylococcus aureus (Isolate ID GG/190723/sa/1.2)). Compound MICs were determined to be in the following activity ranges “A” activity≦0.25 μg/mL; “B” activity>0.25 μg/mL-1.0 μg/mL; “C” activity>1.0 μg/mL-16 μg/mL; “D” activity>16 μg/mL and ND=not determined. The bracketed entries indicate entantiomer(s) and their activity.
The comparative activity of selected compounds having a bromo-substituted oxazole against their corresponding non-brominated analogues is shown in Table 4.

[3] = Pharmacokinetic assay: plasma concentration by LC/MS/MS after single intravenous or peroral dose of 3 mg/kg; format: in vivo; settings: 3 mg/kg IV dosing in mice
Description: The pharmacokinetic profiles of selected comparator compounds A-N in Table 6 and compounds of the invention were determined by measuring the compound concentration in plasma by LC/MS/MS following a single intravenous or peroral administration of the compounds at a dose of 3 mg/kg. The concentrations described are the mean plasma concentrations at each time point from three animals. Intravenous dose formulation was administered as a single bolus dose through the tail vein. Oral dose formulation was administered to animals by an oral gavage needle. In both cases the dose volume was 5.0 mL/kg. Blood was collected from anesthetized mice through a capillary guided into the retro-orbital plexus. The collected blood was centrifuged to obtain plasma and the compounds extracted into methanol prior to determining the compound concentration by LC/MS/MS. The results are shown graphically in FIG. 1 and for the AUC and CL parameters in Table 6.

[4] = system: S. aureus ATCC 43300 (MRSA); assay: microbe, parasite or virus in culture; format: cell-based; settings: Staphylococcus aureus
Description: as §1
(§2) Selected compounds were also tested against a panel of target strains and their MICs are shown in Table 3 against the gold standard Linezolid. […] The activity of the compounds observed against S. aureus was also shown to be maintained within a narrow range across the staphylococcal panel tested.

[5] = system: S. aureus ATCC BAA-44 (MDRSA); assay: microbe, parasite or virus in culture; format: cell-based; settings: Staphylococcus aureus, ATCCBAA44
Description: as §1, §2

[6] = system: S. saprophyticus ATCC 43809; assay: MIC, staphylococcal panel; format: cell-based; settings: Staphylococcus saprophyticus, ATCC43809
Description: as §1, §2

S. hominis ATCC 27844 = assay: MIC, staphylococcal panel; format: cell-based; settings: Staphylococcus hominis, ATCC27844
Description: as §1, §2

S. warneri ATCC 49454 = assay: MIC, staphylococcal panel; format: cell-based; settings: Staphylococcus warneri, ATCC49454
Description: as §1, §2

[7] = system: S. lugdunensis ATCC 43809; assay: MIC, staphylococcal panel; format: cell-based; settings: Staphylococcus lugdunensis, ATCC43809
Description: as §1, §2

[8] = system: S. haemolyticus ATCC 29970; assay: MIC, staphylococcal panel; format: cell-based; settings: Staphylococcus haemolyticus, ATCC29970
Description: as §1, §2

[9] = system: S. aureus ATCC 19636 (Smith); assay: MIC, staphylococcal panel; format: cell-based; settings: Staphylococcus aureus, ATCC19636
Description: as §1, §2

[10] = system: S. epidermidis ATCC 12228; assay: MIC, staphylococcal panel; format: cell-based; settings: Staphylococcus epidermidis, ATCC12228
Description: as §1, §2

[11] = ATCC29213, read-out: MIC (μg/mL) S. aureus (ATCC29213), Table 5, racemate and enantiomers
[12] = ATCC29213, read-out: S. aureus MIC (μg/mL) Activity Range, S. aureus (ATCC29213)
[13] = read-out: MIC (μg/mL) FtsZ G196A mutant strain
[14] = read-out: MIC (μg/mL) G196A mutant strain

Row | SMILES | MIC [1, 11] [µg/mL] | MIC [1, 12] [µg/mL] | MIC [2, 13] [µg/mL] | MIC [2, 14] [µg/mL] | other results
1 | COc1ccc(-c2nc([C@@H](C)Oc3ccc(F)c(C(N)=O)c3F)oc2Br)cc1 [Compound 5B] | 0.5 (≈ 1.1 µM) | 0.25 to 1 (≈ 0.552 to 2.21 µM) | 16 (≈ 35.3 µM) | 16 (≈ 35.3 µM) | 
2 | NC(=O)c1c(F)ccc(O[C@@H](CO)c2nc(-c3ccc(F)cc3F)c(Br)o2)c1F [Compound 233A, (S)-3-(1-(5-bromo-4-(2,4-difluorophenyl)oxazol-2-yl)-2-hydroxyethoxy)-2,6-difluorobenzamide] | 32 (≈ 67.3 µM) | > 16 |  | > 256 | 
3 | COc1ccc(-c2nc([C@H](C)Oc3ccc(F)c(C(N)=O)c3F)oc2Br)cc1 [Compound 5A] | 16 (≈ 35.3 µM) | 1 to 16 (≈ 2.21 to 35.3 µM) |  | > 256 | 
4 | CC(Oc1ccc(F)c(C(N)=O)c1F)c1nc(-c2ccc(C(F)(F)F)cc2)c(Br)o1 (stereo not shown) [Compound 27, 3-(1-(5-bromo-4-(4-(trifluoromethyl)phenyl)oxazol-2-yl)ethoxy)-2,6-difluorobenzamide] |  | < 0.25 |  |  | AUC [3]: 2200 ng·h/mL; CL [3]: 22 mL/min/kg
5 | NC(=O)c1c(F)ccc(OC(CO)c2nc(-c3ccc(F)cc3F)c(Br)o2)c1F (racemic) [Compound 233, 3-(1-(5-bromo-4-(2,4-difluorophenyl)oxazol-2-yl)-2-hydroxyethoxy)-2,6-difluorobenzamide] | 0.25 (≈ 0.526 µM) | < 0.25 |  | 8 (≈ 16.8 µM) | clearance ([3]; mouse, plasma): 18 mL/min/kg; AUC ([3]; mouse, plasma, read-out: AUC): 2300 ng·h/mL; MIC ([1]; ATCC29213, Staphylococcus aureus ATCC 29213, Table 3 panel): 0.25 µg/mL (≈ 0.526 µM); MIC [4]: 0.5 µg/mL (≈ 1.05 µM); MIC [5]: 0.25 µg/mL (≈ 0.526 µM); MIC [6]: 0.5 µg/mL (≈ 1.05 µM); MIC (S. hominis ATCC 27844): 0.5 µg/mL (≈ 1.05 µM); MIC (S. warneri ATCC 49454): 0.5 µg/mL (≈ 1.05 µM); MIC [7]: 0.5 µg/mL (≈ 1.05 µM); MIC [8]: 0.5 µg/mL (≈ 1.05 µM); MIC [9]: 0.25 µg/mL (≈ 0.526 µM); MIC [10]: 0.5 µg/mL (≈ 1.05 µM)
6 | NC(=O)c1c(F)ccc(O[C@H](CO)c2nc(-c3ccc(F)cc3F)c(Br)o2)c1F [Compound 233B, (R)-3-(1-(5-bromo-4-(2,4-difluorophenyl)oxazol-2-yl)-2-hydroxyethoxy)-2,6-difluorobenzamide] | 0.25 (≈ 0.526 µM) | < 0.25 |  | 8 (≈ 16.8 µM) | 
7 | COC(=O)NCC(Oc1ccc(F)c(C(N)=O)c1F)c1nc(-c2ccc(C(F)(F)F)cc2)co1 (stereo not shown) [Compound 287, methyl (2-(3-carbamoyl-2,4-difluorophenoxy)-2-(4-(4-(trifluoromethyl)phenyl)oxazol-2-yl)ethyl)carbamate] |  | > 16 | > 256 |  | 
8 | COC(=O)NCC(Oc1ccc(F)c(C(N)=O)c1F)c1nc(-c2ccc(C(F)(F)F)cc2)c(Br)o1 (stereo not shown) [Compound 288, methyl (2-(5-bromo-4-(4-(trifluoromethyl)phenyl)oxazol-2-yl)-2-(3-carbamoyl-2,4-difluorophenoxy)ethyl)carbamate] |  | 0.25 to 1 (≈ 0.443 to 1.77 µM) | 16 (≈ 28.4 µM) |  | 
9 | C[C@@H](Oc1ccc(F)c(C(N)=O)c1F)c1nc(-c2ccc(C(F)(F)F)cc2)c(Br)o1 [Compound 184, (R)-3-(1-(5-bromo-4-(4-(trifluoromethyl)phenyl)oxazol-2-yl)ethoxy)-2,6-difluorobenzamide] |  | < 0.25 | 0.5 (≈ 1.02 µM) |  | 
10 | CC(Oc1ccc(F)c(C(N)=O)c1F)c1nc(-c2ccc(OC(F)(F)F)cc2)c(Br)o1 (stereo not shown) [Compound 16, 3-(1-(5-bromo-4-(4-(trifluoromethoxy)phenyl)oxazol-2-yl)ethoxy)-2,6-difluorobenzamide] |  | 0.25 to 1 (≈ 0.493 to 1.97 µM) |  |  | AUC [3]: 1400 ng·h/mL; CL [3]: 36 mL/min/kg
